In experiment [1] the test system is Phosphorylation of ERK1/2 in MIA PaCa-2 cells. In words: Phospho-ERK1/2 MSD assay in MIA PaCa-2 cells. The format is cell-based. The following applies: read-out: p-ERK IC50 (2 h, MiaPaCa-2; μM), 2 h compound treatment, MIA PaCa-2 cells, EGF stimulated. On the procedure:
(§1) Phospho-ERK1/2 MSD Assay:
(§2) Sixteen hours prior to compound treatment, MIA PaCa-2 or A549 cells were seeded in 96-well cell culture plates at a density of 25,000 cells/well and incubated at 37° C., 5% CO2. A compound dose-response titration was diluted in growth media, added to appropriate wells of a cell culture plate, and then incubated at 37° C., 5% CO2 for 2 or 4 hours (see Table 15). Following compound treatment, cells were stimulated with 10 ng/mL EGF (Roche 11376454001) for 10 min, washed with ice-cold Dulbecco's phosphate-buffered saline, no Ca2+ or Mg2+ (ThermoFisher Scientific 14190144), and then lysed in RIPA buffer (50 mM Tris-HCl pH 7.5, 1% Igepal, 0.5% sodium deoxycholate, 150 mM NaCl. and 0.5% sodium dodecyl sulfate) containing protease inhibitors (Roche 4693132001) and phosphatase inhibitors (Roche 4906837001). Phosphorylation of ERK1/2 in compound-treated lysates was assayed using Phospho-ERK1/2 Whole Cell Lysate kits (Meso Scale Discovery K151DWD) according to the manufacturer's protocol.

The subject of experiment [2] is Phosphorylation of ERK1/2 in A549 cells. The experiment can be described thus: Phospho-ERK1/2 MSD assay in A549 cells. The note with it: read-out: p-ERK IC50 (2 h, A549; μM), 2 h compound treatment, A549 cells, EGF stimulated. The format is cell-based. On the procedure: as §1
as §2, with “MIA PaCa-2 (ATCC® CRL-1420™) and A549 (ATCC® CCL-185™) cells were cultured in RPMI 1640 Medium (ThermoFisher Scientific 11875093) containing 10% fetal bovine serum (ThermoFisher Scientific 16000044) and 1× penicillin-streptomycin-glutamine (ThermoFisher Scientific 10378016). Sixteen” for “Sixteen”

Where two headings read alike, the source gives them in different places.

In the case of `C=CC(=O)N1C[C@H](C)N(c2nc(=O)n(-c3c(C)cc(C)nc3C(C)C)c3nc(-c4ccccc4F)c(Cl)cc23)C[C@H]1C` (single isomer, unassigned) [Example 165-1], the IC50 (in general, the midpoint of a concentration-inhibition curve) in experiment [1] (Homo sapiens, MIA PaCa-2, 2 h) was 0.049 µM; in experiment [2] (Homo sapiens, A549, 2 h), more than 7.5 µM.

With `C=CC(=O)N1C[C@H](C)N(c2nc(=O)n(-c3c(C)cc(C(=C)C)nc3C(C)C)c3nc(-c4ccccc4F)c(Cl)cc23)C[C@H]1C` (single isomer, unassigned) [Example 173-1], the IC50 worked out at 0.229 µM in experiment [1] (Homo sapiens, MIA PaCa-2, 2 h) and 5.97 µM in experiment [2] (Homo sapiens, A549, 2 h).

For `C=CC(=O)N1C[C@H](C)N(c2nc(=O)n(-c3c(C)cc(N4CCC4)nc3C(C)C)c3nc(-c4ccccc4F)c(Cl)cc23)C[C@H]1C` (single isomer, unassigned) [Example 175-2], the IC50 in experiment [1] (Homo sapiens, MIA PaCa-2, 2 h) was 0.171 µM; in experiment [2] (Homo sapiens, A549, 2 h), more than 7.5 µM.

With `C=CC(=O)N1C[C@H](C)N(c2nc(=O)n(-c3c(C)cc(C(C)C)nc3C(C)C)c3nc(-c4ccccc4F)c(Cl)cc23)C[C@H]1C` (single isomer, unassigned) [Example 176-1], the IC50 in experiment [1] (Homo sapiens, MIA PaCa-2, 2 h) turned out to be 0.347 µM; in experiment [2] (Homo sapiens, A549, 2 h), 5.75 µM.

For `C=CC(=O)N1C[C@H](C)N(c2nc(=O)n(-c3c(C)cc(C=C)nc3C(C)C)c3nc(-c4ccccc4F)c(Cl)cc23)C[C@H]1C` (single isomer, unassigned) [Example 177-1], the IC50 amounted to 0.063 µM in experiment [1] (Homo sapiens, MIA PaCa-2, 2 h) and 3.34 µM in experiment [2] (Homo sapiens, A549, 2 h).

`C=CC(=O)N1[C@H](C)CN(c2nc(=O)n(-c3c(C(C)C)cnnc3C(C)C)c3nc(-c4ccccc4F)c(Cl)cc23)C[C@@H]1C` (single isomer, unassigned) [Example 206-1, 4-(cis-4-Acryloyl-3,5-dimethylpiperazin-1-yl)-6-chloro-1-(3,5-diisopropylpyridazin-4-yl)-7-(2-fluorophenyl)pyrido[2,3-d]pyrimidin-2(1H)-one]: the IC50 is 0.1 µM in experiment [1] (Homo sapiens, MIA PaCa-2, 2 h) and more than 7.5 µM in experiment [2] (Homo sapiens, A549, 2 h).

On to `C=CC(=O)N1C[C@H](C)N(c2nc(=O)n(-c3c(Cl)ccnc3C(C)C)c3nc(-c4ccccc4F)c(Cl)cc23)C[C@H]1C` [Example 55-50, 6-Chloro-1-(4-chloro-2-isopropyl-3-pyridyl)-4-[(2S,5R)-2,5-dimethyl-4-prop-2-enoyl-piperazin-1-yl]-7-(2-fluorophenyl)pyrido[2,3-d]pyrimidin-2-one], for which the half-inhibitory concentration (IC50) in experiment [1] (Homo sapiens, MIA PaCa-2, 2 h) is 0.023 µM; in experiment [2] (Homo sapiens, A549, 2 h), more than 7.5 µM.

As to `C=CC(=O)N1C[C@H](C)N(c2nc(=O)n(-c3c(N(C)C)ccnc3C(C)C)c3nc(-c4c(N)cccc4F)c(Cl)cc23)C[C@H]1C` [Example 55-54, 7-(2-Amino-6-fluoro-phenyl)-6-chloro-1-[4-(dimethylamino)-2-isopropyl-3-pyridyl]-4-[(2S,5R)-2,5-dimethyl-4-prop-2-enoyl-piperazin-1-yl]pyrido[2,3-d]pyrimidin-2-one], the IC50 is 0.016 µM in experiment [1] and more than 7.5 µM in experiment [2] (Homo sapiens, A549, 2 h).

For `C=CC(=O)N1C[C@H](C)N(c2nc(=O)n(-c3c(N(C)C)ccnc3C(C)C)c3nc(-c4c(N)cccc4F)c(Cl)cc23)C[C@H]1C` [Example 55-56, 7-(2-Amino-6-fluoro-phenyl)-6-chloro-1-[4-(dimethylamino)-2-isopropyl-3-pyridyl]-4-[(2S,5R)-2,5-dimethyl-4-prop-2-enoyl-piperazin-1-yl]pyrido[2,3-d]pyrimidin-2-one], the values for the IC50 in experiment [1] and in experiment [2] were 0.01 µM and more than 7.5 µM, respectively.

As for `C=CC(=O)N1C[C@H](C)N(c2nc(=O)n(-c3c(N(C)C)ccnc3C(C)C)c3nc(-c4c(N)cccc4F)c(Cl)cc23)C[C@H]1C` [Example 55-57, 7-(2-Amino-6-fluoro-phenyl)-6-chloro-1-[4-(dimethylamino)-2-isopropyl-3-pyridyl]-4-[(2S,5R)-2,5-dimethyl-4-prop-2-enoyl-piperazin-1-yl]pyrido[2,3-d]pyrimidin-2-one], the concentration for half-maximal inhibition (IC50) in experiment [1] was 0.177 µM; in experiment [2], more than 7.5 µM.
